Earlier results in US20140234397A1 (priority 2013, published 2014).
Read-outs that look alike come from different tables or passages of the source.

Legend:
[1] = rat; for removal of toxin: radio-tagged metal (CO60) removed from the liver
[2] = humans

N[C@@H](CCC(=O)N[C@@H](CS)C(=O)NCC(=O)O)C(=O)O [Plain glutathione, glutathione]
toxin remaining ([1]; radio-tagged metal (CO60) in the liver): 100% | removal of toxin [1]: 0% | removal of toxin ([1]; listed as Intravenous glutathione): 64% | absorption after oral ingestion [2]: not absorbed
